In patent publication US20260042764A1, “COMPOSITIONS AND METHODS FOR INHIBITION OF KRAS” (TheRas, Inc., priority 2022, published 2026):

Legend:
[1] = molecular target: T1, Avi-KRAS G12R (1-169) GppNHp/RAF1 RBD-3xFLAG (52-151) (Homo sapiens, UniProt P01116, G12R); test: Raf1-KRAS G12R-GppNHP disruption HTRF assay (Biological Example 1); type: binding
T1 construct: Avi-KRAS G12R (1-169)
In short: (§1)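 Compounds were tested for disruption of KRAS–RAF1 RBD binding by HTRF in 50 mM Tris pH 7.5, 100 mM NaCl, 5 mM MgCl2, 0.1% BSA, 0.01% Tween, 10% DMSO. Protein mix was incubated 1 h at room temperature with shaking, then detection reagents added for another 1 h. Activity expressed as percent of DMSO control.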

[2] = molecular target: T2, Avi-KRAS G12V (1-169) GppNHp/RAF1 RBD-3xFLAG (52-151) (Homo sapiens, UniProt P01116, G12V); test: Raf1-KRAS G12V-GppNHP disruption HTRF assay (Biological Example 1); type: binding
T2 construct: Avi-KRAS G12V (1-169)
T2 sequence (P01116 1-169 isoform P01116-2 G12V): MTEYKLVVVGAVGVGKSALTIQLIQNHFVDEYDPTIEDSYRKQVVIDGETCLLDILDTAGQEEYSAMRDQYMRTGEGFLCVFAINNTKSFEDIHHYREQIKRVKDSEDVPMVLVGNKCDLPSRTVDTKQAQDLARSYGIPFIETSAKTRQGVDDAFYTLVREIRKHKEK
In short: as §1

SW620 cells (KRAS G12V) = test: Cell-based pERK HTRF assay in SW620 cell (Biological Example 4); conditions: Homo sapiens, SW-620, SW620 (KRAS G12V) cells, pERK HTRF
In short: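 This assay measures inhibition of ERK phosphorylation downstream of KRAS G12V in intact SW620 cells. Compounds are applied for 4 h over nine half-log concentrations starting at 1 μM, and pERK is quantified by HTRF.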

[3] = molecular target: T3, Avi-KRAS WT (1-169) GppNHp/RAF1 RBD-3xFLAG (52-151) (Homo sapiens, UniProt P01116); test: Raf1-KRAS WT-GppNHP disruption HTRF assay (Biological Example 1); type: binding
T3 construct: Avi-KRAS WT (1-169)
T3 sequence (P01116 1-169 isoform P01116-2): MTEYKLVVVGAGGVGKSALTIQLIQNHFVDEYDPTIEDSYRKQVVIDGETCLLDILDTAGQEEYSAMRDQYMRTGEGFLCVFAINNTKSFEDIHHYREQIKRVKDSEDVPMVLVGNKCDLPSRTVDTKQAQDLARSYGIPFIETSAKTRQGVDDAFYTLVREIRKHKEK
In short: as §1

GP2d cells (KRAS G12D) = test: Cell-based pERK HTRF assay in GP2d cell (Biological Example 2); conditions: GP2d, GP2d (KRAS G12D) cells, pERK HTRF
In short: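 Phospho-ERK in lysed cells was detected by HTRF using Eu cryptate and d2 antibodies, read between 4 and 24 h at room temperature. Prior to lysis, KRAS G12D GP2d cells, seeded the day before in DMEM with 10% FBS, were exposed to compounds for 60 min. Compounds were tested as 9-point half-log curves from 1 μM or 100 nM top, with 0.25% DMSO.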

[4] = molecular target: T4, Avi-KRAS G12D (1-169) GppNHp/RAF1 RBD-3xFLAG (52-151) (Homo sapiens, UniProt P01116, G12D); test: Raf1-KRAS G12D-GppNHP disruption HTRF assay (Biological Example 1); type: binding
T4 construct: Avi-KRAS G12D (1-169)
T4 sequence (P01116 1-169 isoform P01116-2 G12D): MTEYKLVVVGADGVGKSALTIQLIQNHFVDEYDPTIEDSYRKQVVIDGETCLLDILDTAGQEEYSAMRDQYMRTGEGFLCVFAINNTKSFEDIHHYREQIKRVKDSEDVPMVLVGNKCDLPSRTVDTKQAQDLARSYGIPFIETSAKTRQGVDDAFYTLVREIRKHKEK
In short: as §1

[5] = KRAS G12R, GppNHp-loaded, class symbols
[6] = KRAS G12V, GppNHp-loaded, class symbols
[7] = KRAS WT, GppNHp-loaded, class symbols
[8] = KRAS G12D, GppNHp-loaded, class symbols

T1 sequence (P01116 1-169 isoform P01116-2 G12R): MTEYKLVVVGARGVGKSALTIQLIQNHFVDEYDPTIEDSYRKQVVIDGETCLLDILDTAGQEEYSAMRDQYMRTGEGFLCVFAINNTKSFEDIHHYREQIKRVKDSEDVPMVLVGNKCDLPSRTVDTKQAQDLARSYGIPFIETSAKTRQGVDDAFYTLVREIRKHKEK

Row | SMILES | IC50 [1, 5] [nM] | IC50 [2, 6] [nM] | IC50 (SW620 cells (KRAS G12V); class symbols) [nM] | IC50 [3, 7] [nM] | IC50 (GP2d cells (KRAS G12D); class symbols) [nM] | IC50 [4, 8] [nM] | IC50 ([1]; KRAS G12R-GppNHp/RAF1 RBD HTRF) [nM] | IC50 ([2]; KRAS G12V-GppNHp/RAF1 RBD HTRF) [nM] | IC50 (SW620 cells (KRAS G12V)) [nM] | IC50 ([3]; KRAS WT-GppNHp/RAF1 RBD HTRF) [nM] | IC50 (GP2d cells (KRAS G12D)) [nM] | IC50 ([4]; KRAS G12D-GppNHp/RAF1 RBD HTRF) [nM]
1 | CC[C@@H]1[C@H](N(C)c2nc(OC[C@@]34CCCN3C[C@H](F)C4)nc3c(F)c(-c4ccc(F)c5sc(N)c(C#N)c45)c(C(F)(F)F)cc23)CCN1C(=O)C(C)C [Compound 433] | – | – | – | – | – | – | 1000 to 10000 | 1000 to 10000 | 100 to 1000 | 1000 to 10000 | 100 to 1000 | 1000 to 10000
2 | CC[C@@H]1[C@H](N(C)c2nc(OC[C@@]34CCCN3C[C@H](F)C4)nc3c(F)c(-c4ccc(F)c5sc(N)c(C#N)c45)c(C(F)(F)F)cc23)CCN1C(=O)C1CC1 [Compound 434] | – | – | – | – | – | – | 1000 to 10000 | 1000 to 10000 | 100 to 1000 | 100 to 1000 | 100 to 1000 | 1000 to 10000
3 | CCN(c1nc(OC[C@@]23CCCN2C[C@H](F)C3)nc2c(F)c(-c3ccc(F)c4sc(N)c(C#N)c34)c(C(F)(F)F)cc12)C1CCN(C(=O)N2C3COCC2C3)C1 (stereo partly drawn) [Compound 652] | < 100 | < 100 | < 100 | < 100 | < 100 | < 100 | – | – | – | – | – | –
4 | CC(=O)N1C[C@H](O)[C@@H](N(C)c2nc(OC[C@@]34CCCN3C[C@H](F)C4)nc3c(F)c(-c4ccc(F)c5sc(N)c(C#N)c45)c(C(F)(F)F)cc23)C1 [Compound 347] | – | – | – | – | – | – | 100 to 1000 | 100 to 1000 | 100 to 1000 | 100 to 1000 | < 100 | < 100

Continued, values first:

Row | IC50 [1, 5] [nM] | IC50 [2, 6] [nM] | IC50 (SW620 cells (KRAS G12V); class symbols) [nM] | IC50 [3, 7] [nM] | IC50 (GP2d cells (KRAS G12D); class symbols) [nM] | IC50 [4, 8] [nM] | IC50 ([1]; KRAS G12R-GppNHp/RAF1 RBD HTRF) [nM] | IC50 ([2]; KRAS G12V-GppNHp/RAF1 RBD HTRF) [nM] | IC50 (SW620 cells (KRAS G12V)) [nM] | IC50 ([3]; KRAS WT-GppNHp/RAF1 RBD HTRF) [nM] | IC50 (GP2d cells (KRAS G12D)) [nM] | IC50 ([4]; KRAS G12D-GppNHp/RAF1 RBD HTRF) [nM] | SMILES
5 | 100 to 1000 | 100 to 1000 | < 100 | 100 to 1000 | < 100 | 100 to 1000 | – | – | – | – | – | – | CCN(c1nc(OC[C@@]23CCCN2C[C@H](F)C3)nc2c(F)c(-c3ccc(F)c4sc(N)c(C#N)c34)c(C(F)(F)F)cc12)[C@H]1C[C@@H](COC)N(C(=O)OC)C1 (atropisomer, axis not shown) [Compound 714]
6 | 100 to 1000 | 100 to 1000 | < 100 | < 100 | < 100 | 100 to 1000 | – | – | – | – | – | – | CCN(c1nc(OC[C@@]23CCCN2C[C@H](F)C3)nc2c(F)c(-c3ccc(F)c4sc(N)c(C#N)c34)c(C(F)(F)F)cc12)[C@@H]1C[C@@H](C)N(C(=O)COC)C1 (atropisomer, axis not shown) [Compound 597]
7 | – | – | – | – | – | – | < 100 | < 100 | < 100 | 100 to 1000 | < 100 | < 100 | CCC(=O)N1C[C@@H](N(CC)c2nc(OC[C@@]34CCCN3C[C@H](F)C4)nc3c(F)c(-c4ccc(F)c5sc(N)c(C#N)c45)c(C(F)(F)F)cc23)C[C@@H]1C [Compound 464]
8 | – | – | – | – | – | – | 100 to 1000 | 1000 to 10000 | < 100 | 100 to 1000 | < 100 | 100 to 1000 | C[C@@H]1[C@H](N(C)c2nc(OC[C@]34C[C@@H](F)CN3CC3(CC3)C4)nc3c(F)c(-c4ccc(F)c5sc(N)c(C#N)c45)c(C(F)(F)F)cc23)CCN1C(=O)C1CC1 [Compound 564]
9 | – | – | – | – | – | – | 100 to 1000 | 100 to 1000 | < 100 | 100 to 1000 | < 100 | 100 to 1000 | N#Cc1c(N)sc2c(F)ccc(-c3c(C(F)(F)F)cc4c(N5C[C@@H]6CC[C@H]5CN6C(=O)C5CC5)nc(OC[C@@]56CCCN5C[C@H](F)C6)nc4c3F)c12 [Compound 456]
10 | – | – | – | – | – | – | 100 to 1000 | 100 to 1000 | < 100 | 100 to 1000 | < 100 | < 100 | CCN(c1nc(OC[C@@]23CCCN2C[C@H](F)C3)nc2c(F)c(-c3ccc(F)c4sc(N)c(C#N)c34)c(C(F)(F)F)cc12)[C@H]1C[C@@H](C)N(C(C)=O)C1 [Compound 446]
11 | – | – | – | – | – | – | < 100 | 100 to 1000 | < 100 | 100 to 1000 | < 100 | < 100 | CCN(c1nc(OC[C@@]23CCCN2C[C@H](F)C3)nc2c(F)c(-c3ccc(F)c4sc(N)c(C#N)c34)c(C(F)(F)F)cc12)[C@H]1CCN(C(=O)OC(C)C)C1 (atropisomer, axis not shown) [Compound 556]
